From patent US20260027118A1, “COMPOSITIONS USEFUL FOR MODULATING SPLICING” (Skyhawk Therapeutics, Inc., priority 2022, published 2026)

Assays:
ATXN3-HiBiT protein = experiment: ATXN3 HiBiT assay (Nano Glo HiBiT luminescence); format: cell-based; settings: Kelly-ATXN3-HiBiT cells, luminescence read out 48 h after addition of the compound
Excerpt: To monitor ATXN3 protein levels by luminescence, a Kelly-ATXN3-HiBiT cell line with homozygous knock-in of HiBiT at the C-terminus of the endogenous ATXN3 gene was used (knock-in of the HiBiT-tag coding sequence SEQ ID NO. 14: 5′[…]3′ into exon 11 of ATXN3 -position 1114 of ATXN3 RefSeq NM_004993.6). Manipulations of the Kelly-ATXN3-HiBiT cell line that result in downregulation of the ATXN3-HiBiT protein (through modulation of ATXN3-HiBiT pre-mRNA splicing) can be followed by monitoring the luminescence signal of the HiBiT tag using the Nano Glo HiBiT Lytic Detection System (Promega, #N3050). Kelly-ATXN3-HiBiT cells were maintained in RPMI 1640 w/Glutamax (Gibco, #61870010), 10% FBS (Sigma Aldrich, #F8687), 1% Penicillin/Streptomycin (Gibco, #15140-122) at 37° C., 5% CO2. To assess HiBiT-luminescence signal upon compound treatment, 2000 Kelly-ATXN3-HiBiT cells were seeded per well in 384 plate format. Compounds were added 24 h after seeding. ATXN3-HiBiT-luminescence signal was read out 48 h after addition of the compound using the Nano Glo HiBiT Lytic Detection System (Promega, #N3050) according to the manufacturer's instructions. To control for cell viability, an identically prepared sister plate was read out with the CellTiter-Glo® 2.0 Assay (Promega, #G9243) according to the manufacturer's instructions. Fold changes of ATXN3-HiBiT-luminescence and of CellTiter-Glo viability signals were calculated relative to a DMSO control condition.

[1] = test system: ATXN3 transcripts containing exon 4; experiment: ATXN3 Quantitative Splicing Assay (qPCR, E4E5 primers/probe); format: cell-based, Human; settings: Homo sapiens; SK-N-MC cells, treated with compounds for 24 h, qPCR of transcripts containing exon 4
Method: Human neuroblastoma SK-N-MC cells were plated in 384-well plates at 20,000 cells/well. Twenty-four hours after plating, cells were treated with compounds for 24 h at appropriate concentrations ranging from 30.M to 0.6 nM (0.300 DMS0). Treated cells were lysed in 15 μL of lysis buffer, and cDNA was synthesized using the Fast Advanced Cells-to-Ct kit. Two μL of each cDNA was used in qPCR reactions to confirm the exon 4 skipped transcripts of ATXN3. A second set of primers/probe E4E5 was used to detect the transcripts containing exon 4. The third set of primers/probe E8E9 was used to detect total gene level of ATXN3. The qPCR reactions were prepared in 384-well plates in 10 μL volume, using TaqMan™ Fast Advanced Master Mix with primers and probes shown in the table below. Reactions were run in a Quant Studio 6 qPCR instrument with default settings.
The primers and probes are listed below in Table 4.

total ATXN3 protein = experiment: ATXN3 total protein assay (Mesoscale Discovery); format: cell-based, Human; settings: SK-N-MC cells, 48 hours incubation, MSD assay
Method: Human neuroblastoma SK-N-MC cells were seeded at 10,000 cells/well in 384 well plates one day prior to compound treatment. The concentrations of compounds were tested at appropriate doses ranging from 30 μM to 0.6 nM. After incubation for 48 hours, the cells were lysed with 25 μL of lysis buffer containing protease inhibitors, and total ATXN3 protein levels were assessed by Mesoscale Discovery (MSD) assay developed with one pair of anti-ATXN3 antibodies. The capture and detect antibodies were raised in mouse and rabbit respectively. Anti-rabbit MSD-ST antibody was used for secondary antibody. ATXN3 recombinant protein was used for standards. The readouts were captured with 35 μL of MSD read buffer and multi-array 384-well high binding plates.

Compound | EC50 (ATXN3-HiBiT protein) [nM] | IC50 [1] [nM] | IC50 (total ATXN3 protein) [nM]
C[C@H](N)Cc1oc2c(NCc3cccs3)cc(Cl)nc2c1C#CCO [Compound 26, 3-{2-[(S)-2-aminopropyl]-5-chloro-7-thenylamino-1-oxa-4-aza-3-indenyl}-2-propyn-1-ol] | 101 to 500 | 101 to 500 | 501 to 5000
C[C@H](N)Cc1oc2c(NCc3ccco3)cc(Cl)nc2c1C#CCO [Compound 27, 3-{2-[(S)-2-aminopropyl]-5-chloro-7-(furfurylamino)-1-oxa-4-aza-3-indenyl}-2-propyn-1-ol] | 501 to 5000 | 501 to 5000 | 501 to 5000
CC#Cc1cc(NCc2cccs2)c2oc(C[C@H](C)N)c(C#CC)c2n1 [Compound 28, 2-[(2S)-2-aminopropyl]-3,5-bis(prop-1-yn-1-yl)-N-(thiophen-2-ylmethyl)furo[3,2-b]pyridin-7-amine] | 501 to 5000 | 501 to 5000 | 501 to 5000
CC#Cc1c(C(F)(F)[C@H](C)N)oc2c(NCc3cccs3)nc(Cl)nc12 [Compound 33, 2-[(S)-2-amino-1,1-difluoropropyl]-5-chloro-3-(1-propynyl)-7-thenylamino-1-oxa-4,6-diazaindene] | 101 to 500 | 101 to 500 | 501 to 5000
CC#Cc1c(C[C@H](C)N)oc2c(NCc3cccs3)c(F)c(Cl)nc12 [Compound 36] | 501 to 5000 | 501 to 5000 | 501 to 5000
CC#Cc1c(C[C@@H](N)COC)oc2c(NCc3nccs3)cc(Cl)nc12 [Compound 38, 2-[(R)-2-amino-3-methoxypropyl]-5-chloro-3-(1-propynyl)-7-{[(1,3-thiazol-2-yl)methyl]amino}-1-oxa-4-azaindene] | 101 to 500 | 101 to 500 | 101 to 500
CC#Cc1c(C[C@@H](N)COC)oc2c(NCc3ccco3)cc(Cl)nc12 [Compound 39, 2-[(R)-2-amino-3-methoxypropyl]-5-chloro-7-(furfurylamino)-3-(1-propynyl)-1-oxa-4-azaindene] | 0.01 to 100 | 101 to 500 | 0.01 to 100
CC#Cc1c(C[C@@H](N)[C@H](C)F)oc2c(NCc3ccco3)nc(Cl)nc12 [Compound 41, 2-[(2R,3S)-2-amino-3-fluorobutyl]-5-chloro-7-(furfurylamino)-3-(1-propynyl)-1-oxa-4,6-diazaindene] | 0.01 to 100 | 0.01 to 100 | 0.01 to 100
[2H]C([2H])(OC)[C@H](N)Cc1oc2c(NCc3cccs3)cc(Cl)nc2c1C#CC [Compound 46, 2-[(R)-2-amino-3-methoxy(3,3- ^2H2)propyl]-5-chloro-3-(1-propynyl)-7-thenylamino-1-oxa-4-azaindene] | 0.01 to 100 | 0.01 to 100 | 101 to 500
